In ChEMBL document CHEMBL4507296 (2021):
Activity calls are given as the source filed them.

Columns and labels:
[1] = target: Transient receptor potential cation channel subfamily M member 8 (Homo sapiens, UniProt Q7Z2W7); experiment: Cold activation
[2] = tested on: Tyrosine-protein kinase ABL1 (Homo sapiens), P00519 [F317L]; settings: Compound concentration 1000.0 nM
[3] = tested on: Tyrosine-protein kinase ABL1 (Homo sapiens), P00519 [Q252H]; settings: Compound concentration 1000.0 nM
[4] = tested on: Tyrosine-protein kinase ABL1 (Homo sapiens), P00519 [T315I]; settings: Compound concentration 1000.0 nM
[5] = tested on: Tyrosine-protein kinase ABL1 (Homo sapiens), P00519 [Y253F]; settings: Compound concentration 1000.0 nM
[6] = target: Cyclin-dependent kinase 4 (Homo sapiens) (UniProt P11802); settings: Compound concentration 1000.0 nM
[7] = target: Cyclin-dependent kinase 5 (Homo sapiens) (UniProt Q00535); settings: Compound concentration 1000.0 nM
[8] = target: Cyclin-dependent kinase 8 (Homo sapiens) (UniProt P49336); settings: Compound concentration 1000.0 nM
[9] = target: Casein kinase I isoform alpha (Homo sapiens) (UniProt P48729); settings: Compound concentration 1000.0 nM
[10] = target: Ephrin type-B receptor 2 (Homo sapiens) (UniProt P29323); settings: Compound concentration 1000.0 nM
[11] = target: Ephrin type-B receptor 3 (Homo sapiens) (UniProt P54753); settings: Compound concentration 1000.0 nM
[12] = target: Ephrin type-B receptor 4 (Homo sapiens) (UniProt P54760); settings: Compound concentration 1000.0 nM
[13] = tested on: Receptor-type tyrosine-protein kinase FLT3 (Homo sapiens), P36888 [D835Y]; settings: Compound concentration 1000.0 nM
[14] = tested on: Receptor-type tyrosine-protein kinase FLT3 (Homo sapiens), P36888 [K663Q]; settings: Compound concentration 1000.0 nM
[15] = tested on: eIF-2-alpha kinase GCN2 (Homo sapiens), Q9P2K8 [S808G]; settings: Compound concentration 1000.0 nM
[16] = target: Homeodomain-interacting protein kinase 3 (Homo sapiens) (UniProt Q9H422); settings: Compound concentration 1000.0 nM
[17] = target: Insulin receptor-related protein (Homo sapiens) (UniProt P14616); settings: Compound concentration 1000.0 nM
[18] = tested on: Mast/stem cell growth factor receptor Kit (Homo sapiens), P10721 [A829P]; settings: Compound concentration 1000.0 nM
[19] = target: Leucine-rich repeat serine/threonine-protein kinase 2 (Homo sapiens) (UniProt Q5S007); settings: Compound concentration 1000.0 nM
[20] = target: Leukocyte tyrosine kinase receptor (Homo sapiens) (UniProt P29376); settings: Compound concentration 1000.0 nM
[21] = target: Tyrosine-protein kinase Lyn (Homo sapiens) (UniProt P07948); settings: Compound concentration 1000.0 nM
[22] = target: Mitogen-activated protein kinase kinase kinase 3 (Homo sapiens) (UniProt Q99759); settings: Compound concentration 1000.0 nM
[23] = target: Mitogen-activated protein kinase kinase kinase kinase 5 (Homo sapiens) (UniProt Q9Y4K4); settings: Compound concentration 1000.0 nM
[24] = target: Dual specificity mitogen-activated protein kinase kinase 5 (Homo sapiens) (UniProt Q13163); settings: Compound concentration 1000.0 nM
[25] = target: Serine/threonine-protein kinase 24 (Homo sapiens) (UniProt Q9Y6E0); settings: Compound concentration 1000.0 nM
[26] = target: Myosin light chain kinase, smooth muscle (Homo sapiens) (UniProt Q15746); settings: Compound concentration 1000.0 nM
[27] = target: Serine/threonine-protein kinase Nek5 (Homo sapiens) (UniProt Q6P3R8); settings: Compound concentration 1000.0 nM
[28] = target: Serine/threonine-protein kinase Nek9 (Homo sapiens) (UniProt Q8TD19); settings: Compound concentration 1000.0 nM
[29] = target: Serine/threonine-protein kinase NLK (Homo sapiens) (UniProt Q9UBE8); settings: Compound concentration 1000.0 nM
[30] = target: Mitogen-activated protein kinase 13 (Homo sapiens) (UniProt O15264); settings: Compound concentration 1000.0 nM
[31] = target: Serine/threonine-protein kinase PAK 3 (Homo sapiens) (UniProt O75914); settings: Compound concentration 1000.0 nM
[32] = target: Serine/threonine-protein kinase PknB (Mycobacterium tuberculosis) (UniProt P9WI81); settings: Compound concentration 1000.0 nM
[33] = tested on: Proto-oncogene tyrosine-protein kinase receptor Ret (Homo sapiens), P07949 [M918T]; settings: Compound concentration 1000.0 nM
[34] = target: Serine/threonine-protein kinase RIO2 (Homo sapiens) (UniProt Q9BVS4); settings: Compound concentration 1000.0 nM
[35] = target: Ribosomal protein S6 kinase alpha-4 (Homo sapiens) (UniProt O75676); settings: Compound concentration 1000.0 nM
[36] = target: Ribosomal protein S6 kinase alpha-4 (Homo sapiens) (UniProt O75676); settings: Compound concentration 1000.0 nM; remark: listed apart in the source
[37] = target: Ribosomal protein S6 kinase alpha-2 (Homo sapiens) (UniProt Q15349); settings: Compound concentration 1000.0 nM
[38] = target: Ribosomal protein S6 kinase alpha-6 (Homo sapiens) (UniProt Q9UK32); settings: Compound concentration 1000.0 nM
[39] = target: Ribosomal protein S6 kinase alpha-6 (Homo sapiens) (UniProt Q9UK32); settings: Compound concentration 1000.0 nM; remark: listed apart in the source
[40] = target: Serine/threonine-protein kinase SBK1 (Homo sapiens) (UniProt Q52WX2); settings: Compound concentration 1000.0 nM
[41] = target: SRSF protein kinase 1 (Homo sapiens) (UniProt Q96SB4); settings: Compound concentration 1000.0 nM
[42] = target: Serine/threonine-protein kinase tousled-like 1 (Homo sapiens) (UniProt Q9UKI8); settings: Compound concentration 1000.0 nM
[43] = target: Testis-specific serine/threonine-protein kinase 3 (Homo sapiens) (UniProt Q96PN8); settings: Compound concentration 1000.0 nM
[44] = target: Mu-type opioid receptor (Homo sapiens) (UniProt P35372); settings: Compound concentration 10.0 uM
[45] = target: Alpha-1B adrenergic receptor (Homo sapiens) (UniProt P35368); settings: Compound concentration 10.0 uM
[46] = target: Sigma non-opioid intracellular receptor 1 (Homo sapiens) (UniProt Q99720); settings: Compound concentration 10.0 uM

Ribosomal protein S6 kinase alpha-4 (Homo sapiens), sequence (O75676 whole entry, looked up): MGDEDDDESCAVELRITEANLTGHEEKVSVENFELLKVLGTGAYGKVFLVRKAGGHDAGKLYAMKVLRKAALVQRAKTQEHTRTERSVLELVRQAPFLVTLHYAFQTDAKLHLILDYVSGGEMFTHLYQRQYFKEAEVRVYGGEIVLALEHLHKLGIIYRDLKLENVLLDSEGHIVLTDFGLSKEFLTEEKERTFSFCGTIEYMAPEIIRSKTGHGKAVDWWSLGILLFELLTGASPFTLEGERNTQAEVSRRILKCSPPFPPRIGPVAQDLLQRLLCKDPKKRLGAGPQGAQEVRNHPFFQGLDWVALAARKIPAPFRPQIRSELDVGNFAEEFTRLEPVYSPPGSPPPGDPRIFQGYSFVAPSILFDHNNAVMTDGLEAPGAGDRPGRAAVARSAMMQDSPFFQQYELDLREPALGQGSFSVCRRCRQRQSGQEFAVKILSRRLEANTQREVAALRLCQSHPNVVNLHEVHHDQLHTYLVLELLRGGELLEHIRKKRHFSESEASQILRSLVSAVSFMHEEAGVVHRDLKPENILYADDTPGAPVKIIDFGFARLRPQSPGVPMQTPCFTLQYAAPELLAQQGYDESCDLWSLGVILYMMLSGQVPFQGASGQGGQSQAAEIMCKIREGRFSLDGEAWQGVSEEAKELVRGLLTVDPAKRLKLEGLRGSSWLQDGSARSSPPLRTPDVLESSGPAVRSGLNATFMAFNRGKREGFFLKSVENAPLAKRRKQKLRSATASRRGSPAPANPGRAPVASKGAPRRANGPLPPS
Ribosomal protein S6 kinase alpha-6 (Homo sapiens), sequence (Q9UK32 whole entry): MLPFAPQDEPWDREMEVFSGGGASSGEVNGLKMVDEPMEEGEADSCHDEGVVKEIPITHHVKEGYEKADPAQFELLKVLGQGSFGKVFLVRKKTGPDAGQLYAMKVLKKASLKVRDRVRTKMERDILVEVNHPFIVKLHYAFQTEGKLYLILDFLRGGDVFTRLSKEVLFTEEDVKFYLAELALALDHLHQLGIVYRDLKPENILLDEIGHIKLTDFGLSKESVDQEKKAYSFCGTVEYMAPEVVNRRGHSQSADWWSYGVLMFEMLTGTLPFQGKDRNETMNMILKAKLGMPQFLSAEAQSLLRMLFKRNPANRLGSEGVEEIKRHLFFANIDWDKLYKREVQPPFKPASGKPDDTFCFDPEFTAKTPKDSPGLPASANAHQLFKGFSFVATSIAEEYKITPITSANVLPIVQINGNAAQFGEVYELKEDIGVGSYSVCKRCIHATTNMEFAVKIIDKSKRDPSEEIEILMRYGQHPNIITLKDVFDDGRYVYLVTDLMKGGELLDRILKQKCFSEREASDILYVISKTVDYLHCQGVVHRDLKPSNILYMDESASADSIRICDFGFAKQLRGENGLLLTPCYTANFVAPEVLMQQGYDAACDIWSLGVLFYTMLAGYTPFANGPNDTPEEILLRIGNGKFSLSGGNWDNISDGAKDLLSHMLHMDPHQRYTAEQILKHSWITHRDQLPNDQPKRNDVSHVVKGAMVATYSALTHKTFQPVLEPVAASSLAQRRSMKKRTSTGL
Serine/threonine-protein kinase Nek9 (Homo sapiens), sequence (Q8TD19 whole entry): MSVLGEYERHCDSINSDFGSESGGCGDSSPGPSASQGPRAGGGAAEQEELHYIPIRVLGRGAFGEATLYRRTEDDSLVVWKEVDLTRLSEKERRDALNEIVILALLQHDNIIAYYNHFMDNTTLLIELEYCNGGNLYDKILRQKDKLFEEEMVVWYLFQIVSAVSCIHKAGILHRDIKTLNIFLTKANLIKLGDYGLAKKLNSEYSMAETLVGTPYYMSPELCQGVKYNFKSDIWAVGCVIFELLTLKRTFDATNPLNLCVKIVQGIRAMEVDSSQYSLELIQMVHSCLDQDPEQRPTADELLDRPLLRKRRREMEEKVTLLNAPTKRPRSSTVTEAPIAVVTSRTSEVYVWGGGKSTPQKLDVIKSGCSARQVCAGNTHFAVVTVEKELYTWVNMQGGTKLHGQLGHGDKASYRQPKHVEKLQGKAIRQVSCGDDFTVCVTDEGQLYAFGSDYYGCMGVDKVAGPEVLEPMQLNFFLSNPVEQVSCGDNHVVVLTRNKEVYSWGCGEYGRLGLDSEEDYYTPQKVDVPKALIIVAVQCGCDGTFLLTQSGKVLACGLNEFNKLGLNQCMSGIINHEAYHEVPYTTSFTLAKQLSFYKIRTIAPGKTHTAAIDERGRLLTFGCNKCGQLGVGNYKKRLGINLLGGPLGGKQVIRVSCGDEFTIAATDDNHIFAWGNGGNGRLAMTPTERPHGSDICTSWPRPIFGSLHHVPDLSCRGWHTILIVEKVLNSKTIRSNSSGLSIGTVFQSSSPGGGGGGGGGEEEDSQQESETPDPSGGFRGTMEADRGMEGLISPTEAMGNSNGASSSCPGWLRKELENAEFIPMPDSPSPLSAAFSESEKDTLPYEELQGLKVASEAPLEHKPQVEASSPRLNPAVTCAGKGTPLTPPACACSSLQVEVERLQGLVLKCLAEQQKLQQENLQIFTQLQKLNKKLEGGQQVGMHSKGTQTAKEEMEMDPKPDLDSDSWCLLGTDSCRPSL
Alpha-1B adrenergic receptor (Homo sapiens), sequence (P35368 whole entry): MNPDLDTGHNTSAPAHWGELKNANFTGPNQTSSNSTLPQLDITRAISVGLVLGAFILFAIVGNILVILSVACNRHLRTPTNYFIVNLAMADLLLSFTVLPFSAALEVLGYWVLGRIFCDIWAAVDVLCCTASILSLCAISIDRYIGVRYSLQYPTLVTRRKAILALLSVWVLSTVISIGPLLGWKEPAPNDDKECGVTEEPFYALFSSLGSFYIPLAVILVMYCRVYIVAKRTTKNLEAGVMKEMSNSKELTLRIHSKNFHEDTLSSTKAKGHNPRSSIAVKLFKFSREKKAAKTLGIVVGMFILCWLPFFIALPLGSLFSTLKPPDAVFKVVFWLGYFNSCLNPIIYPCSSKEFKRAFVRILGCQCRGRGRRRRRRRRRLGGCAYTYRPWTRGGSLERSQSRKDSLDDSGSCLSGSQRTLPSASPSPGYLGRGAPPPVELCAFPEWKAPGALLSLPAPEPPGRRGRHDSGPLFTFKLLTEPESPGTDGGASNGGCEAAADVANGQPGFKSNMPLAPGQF
Ephrin type-B receptor 4 (Homo sapiens), sequence (P54760 whole entry): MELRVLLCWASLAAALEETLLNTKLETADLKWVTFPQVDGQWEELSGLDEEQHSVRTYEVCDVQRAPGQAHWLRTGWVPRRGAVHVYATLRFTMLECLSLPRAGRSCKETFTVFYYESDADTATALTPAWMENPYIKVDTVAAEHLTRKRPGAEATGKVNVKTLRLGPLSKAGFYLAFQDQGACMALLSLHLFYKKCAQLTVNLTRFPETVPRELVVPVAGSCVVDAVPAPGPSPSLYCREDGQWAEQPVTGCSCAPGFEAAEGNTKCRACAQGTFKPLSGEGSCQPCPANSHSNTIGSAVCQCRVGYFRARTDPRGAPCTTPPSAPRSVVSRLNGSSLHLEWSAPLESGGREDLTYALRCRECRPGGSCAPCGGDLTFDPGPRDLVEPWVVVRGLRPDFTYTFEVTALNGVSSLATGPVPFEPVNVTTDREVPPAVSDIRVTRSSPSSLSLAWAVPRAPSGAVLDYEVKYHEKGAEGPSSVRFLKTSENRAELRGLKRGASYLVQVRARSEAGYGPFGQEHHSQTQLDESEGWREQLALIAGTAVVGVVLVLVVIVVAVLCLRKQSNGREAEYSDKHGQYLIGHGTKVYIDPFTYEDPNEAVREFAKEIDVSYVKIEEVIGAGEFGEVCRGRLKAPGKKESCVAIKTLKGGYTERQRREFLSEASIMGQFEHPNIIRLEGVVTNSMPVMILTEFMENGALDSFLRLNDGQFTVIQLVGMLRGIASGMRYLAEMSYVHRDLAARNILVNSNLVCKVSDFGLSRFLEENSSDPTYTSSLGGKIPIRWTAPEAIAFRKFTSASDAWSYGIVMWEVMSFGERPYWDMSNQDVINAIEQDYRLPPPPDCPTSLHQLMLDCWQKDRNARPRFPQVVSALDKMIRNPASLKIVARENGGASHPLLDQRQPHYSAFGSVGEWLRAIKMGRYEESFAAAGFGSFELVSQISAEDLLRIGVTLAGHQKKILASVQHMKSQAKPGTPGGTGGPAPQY
Mitogen-activated protein kinase kinase kinase 3 (Homo sapiens), sequence (Q99759 whole entry): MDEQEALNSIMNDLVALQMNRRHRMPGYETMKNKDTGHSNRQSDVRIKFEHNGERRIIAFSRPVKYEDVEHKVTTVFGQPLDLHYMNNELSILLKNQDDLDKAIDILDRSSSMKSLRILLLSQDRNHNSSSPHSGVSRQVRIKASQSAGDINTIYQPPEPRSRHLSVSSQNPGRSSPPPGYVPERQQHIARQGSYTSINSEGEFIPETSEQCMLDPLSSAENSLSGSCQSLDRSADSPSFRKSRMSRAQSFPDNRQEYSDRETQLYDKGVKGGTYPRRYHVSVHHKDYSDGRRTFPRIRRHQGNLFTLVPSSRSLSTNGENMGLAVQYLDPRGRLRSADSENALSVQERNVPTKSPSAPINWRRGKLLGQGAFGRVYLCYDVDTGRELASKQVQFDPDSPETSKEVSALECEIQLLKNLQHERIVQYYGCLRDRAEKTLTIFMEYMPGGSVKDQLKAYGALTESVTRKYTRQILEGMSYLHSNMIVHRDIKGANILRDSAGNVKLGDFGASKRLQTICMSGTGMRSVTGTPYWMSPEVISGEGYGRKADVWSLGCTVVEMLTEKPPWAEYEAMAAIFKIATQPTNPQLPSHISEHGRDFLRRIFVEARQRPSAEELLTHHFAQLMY
Serine/threonine-protein kinase 24 (Homo sapiens), sequence (Q9Y6E0 whole entry, looked up): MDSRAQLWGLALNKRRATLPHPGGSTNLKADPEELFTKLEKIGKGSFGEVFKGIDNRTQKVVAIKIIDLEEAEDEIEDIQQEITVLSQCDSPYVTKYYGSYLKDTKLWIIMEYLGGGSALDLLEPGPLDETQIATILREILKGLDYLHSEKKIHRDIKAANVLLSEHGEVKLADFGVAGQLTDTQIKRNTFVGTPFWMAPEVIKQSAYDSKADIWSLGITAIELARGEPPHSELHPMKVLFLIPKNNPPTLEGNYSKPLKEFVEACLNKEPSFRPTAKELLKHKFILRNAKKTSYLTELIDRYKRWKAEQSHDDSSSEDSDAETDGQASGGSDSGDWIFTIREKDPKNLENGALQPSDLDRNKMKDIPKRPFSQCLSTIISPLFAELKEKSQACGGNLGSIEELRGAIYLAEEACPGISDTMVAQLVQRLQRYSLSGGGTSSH

C[C@H](c1ccc(F)cc1)N(Cc1cccc(C(=O)O)c1)C(=O)c1cnc2ccccc2c1 [PF-05105679]
inactive: residual activity [2] 91% | residual activity [3] 90% | residual activity [4] 85% | residual activity [5] 100% | residual activity [6] 100% | residual activity [7] 100% | residual activity [8] 100% | residual activity [9] 100% | residual activity [10] 96% | residual activity [11] 100% | residual activity [12] 100% | residual activity [13] 100% | residual activity [14] 100% | residual activity [15] 100% | residual activity [16] 100% | residual activity [17] 84% | residual activity [18] 92% | residual activity [19] 100% | residual activity [20] 90% | residual activity [21] 100% | residual activity [22] 100% | residual activity [23] 100% | residual activity [24] 92% | residual activity [25] 100% | residual activity [26] 76% | residual activity [27] 100% | residual activity [28] 100% | residual activity [29] 86% | residual activity [30] 95% | residual activity [31] 96% | residual activity [32] 94% | residual activity [33] 86% | residual activity [34] 80% | residual activity [35] 85% | residual activity [36] 100% | residual activity [37] 100% | residual activity [38] 100% | residual activity [39] 100% | residual activity [40] 92% | residual activity [41] 95% | residual activity [42] 97% | residual activity [43] 64% | inhibition [44] 1.23% | inhibition [45] -0.5% | inhibition [46] 16%
active: IC50 [1] 480 nM
